Patent US20200131196A1 (Mount Tam Therapeutics, Inc., priority 2017, published 2020)
Like-named read-outs stand apart in the source and are kept apart here.

Assays:
SK-MEL-28 = assay: OncoPanel cell proliferation assay, SK-MEL-28; format: cell-based, human; settings: for EC50 / GI50 / IC50: Homo sapiens; for GI50: read-out: Cell Count GI50; for IC50: read-out: Cell Count IC50
Method: (§1) Cells were grown in RPMI 1640, 10% FBS, 2 mM L-alanyl-L-glutamine, 1 mM Na pyruvate, or a special medium. Cells were seeded into 384-well plates and incubated in a humidified atmosphere of 5% CO2 at 37° C. Compounds were added the day following cell seeding. At the same time, a time zero untreated cell plate was generated. After a 3-day incubation period, cells were fixed and stained to allow fluorescence imaging of nuclei. Compounds (1 mM stock solutions) were serially diluted in half-log steps from the highest test concentration ([…]), and assayed over 10 concentrations with a maximum assay concentration of 0.1% DMSO. Automated fluorescence microscopy was carried out using a Molecular Devices ImageXpress Micro XL high-content imager, and images were collected with a 4× objective. 16-bit TIFF images were acquired and analyzed with MetaXpress 5.1.0.41 software.
(§2) Cell proliferation was measured by the fluorescence intensity of an incorporated nuclear dye. The output is referred to as the relative cell count, where the measured nuclear intensity is transformed to percent of control (POC) using the following formula: […]
(§3) Cellular response parameters were calculated using nonlinear regression to a sigmoidal single-site dose response model:
(§4) EC50 is the test compound concentration at the curve inflection point or half the effective response (parameter C of the fitted curve solution). GI50 is the concentration needed to reduce the observed growth by half (midway between the curve maximum and the time zero value). “Cell Count Activity Area” is an estimate of the integrated area above the curve (Barretina, et al. The Cancer Cell Line Encyclopedia enables predictive modelling of anticancer drug sensitivity. Nature 483: 603-607). […] In rare instances, values <0 or >10 may be observed. […] Curve-fitting, calculations, and report generation was performed using a custom data reduction engine and MathIQ based software (AIM).

U-138MG = assay: OncoPanel cell proliferation assay, U-138MG; format: cell-based, human; settings: for EC50 / GI50 / IC50: Homo sapiens, U138-MG; for GI50: read-out: Cell Count GI50; for IC50: read-out: Cell Count IC50
Method: as §1, §2, §3, §4

PC-3 = assay: OncoPanel cell proliferation assay, PC-3; settings: for EC50 / GI50 / IC50: Homo sapiens; for EC50: PC-3, read-out: Cell Count EC50; for GI50: PC-3, read-out: Cell Count GI50; for IC50: PC-3, read-out: Cell Count IC50; for Cell Count Activity Area / Relative cell count (%) Mean: PC-3
Method: Cells were seeded into 384-well plates and incubated in a humidified atmosphere of 5% CO2 at 37° C. Compounds were added the day following cell seeding. At the same time, a time zero untreated cell plate was generated. After a 3-day incubation period, cells were fixed and stained to allow fluorescence imaging of nuclei. Compounds (1 mM stock solutions) were serially diluted in half-log steps from the highest test concentration (1 micromol), and assayed over 10 concentrations with a maximum assay concentration of 0.1% DMSO. Automated fluorescence microscopy was carried out using a Molecular Devices ImageXpress Micro XL high-content imager, and images were collected with a 4× objective. 16-bit TIFF images were acquired and analyzed with MetaXpress 5.1.0.41 software.
GI50 is the concentration needed to reduce the observed growth by half (midway between the curve maximum and the time zero value). […] In rare instances, values <0 or >10 may be observed. […] Curve-fitting, calculations, and report generation was performed using a custom data reduction engine and MathIQ based software (AIM).

[1] = mouse, in vivo, ip
Excerpt: Tumor growth was monitored daily. […] Significance was set at p≤0.05.

TORC1 = molecular target: T1, TORC1 (Homo sapiens, UniProt P42345+P62942); assay: TORC1 inhibition in PC3 cells (Western blot, phospho-rpS6); format: cell-based
T1 construct: endogenous in cells; host or cells: PC3 cells
Method: (§5) Equal amounts of protein were resolved by SDS-PAGE and transferred to nitrocellulose membrane using the Invitrogen Nu-Page system. […] The following day, blots were washed 3 times in TBST, incubated for 2 hr with secondary antibodies (donkey anti rabbit hrp conjugated), and finally washed an additional 3 times in TBST. ECL Prime (Amersham) was used to detect the proteins of interest and ImageJ was used to quantify blots.

TORC2 = molecular target: T2, TORC2 (Homo sapiens, UniProt P42345+P62942); assay: TORC2 inhibition in PC3 cells (Western blot, phospho Akt (S473)); format: cell-based
T2 construct: endogenous in cells; host or cells: PC3 cells
T2 sequence (P62942 2-108 limits assumed, other chains not shown): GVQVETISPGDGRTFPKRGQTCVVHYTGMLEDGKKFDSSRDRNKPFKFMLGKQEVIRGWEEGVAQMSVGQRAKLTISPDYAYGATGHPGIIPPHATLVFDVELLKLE
Method: as §5

[2] = U-138MG, read-out: Cell Count EC50

## CO[C@H]1C[C@@H]2CC[C@@H](C)[C@@](O)(O2)C(=O)C(=O)N2CCCC[C@H]2C(=O)O[C@H]([C@H](C)C[C@@H]2CC[C@@H](O)[C@H](OC)C2)CC(=O)[C@H](C)/C=C(\C)[C@@H](O)[C@@H](OC)C(=O)[C@H](C)C[C@H](C)/C=C/C=C/C=C/1C [Rapamycin, reference compound]
SK-MEL-28
  Cell Count Activity Area: 2.50
  GI50: 98.7 nM
  IC50: > 1000 nM
SK-MEL-28; read-out: Cell Count EC50
  EC50: 0.654 nM
U-138MG; [2]
  EC50: 0.0363 nM
U-138MG; U-138MG
  GI50: 0.436 nM
  IC50: > 1000 nM
  Cell Count Activity Area: 3.14
PC-3
  EC50: 0.23 nM
  GI50: 2.63 nM
  IC50: > 1000 nM
  Cell Count Activity Area: 3.57

## CO[C@H]1C[C@@H]2CC[C@@H](C)[C@@](O)(O2)C(=O)C(=O)N2CCCC[C@H]2C(=O)O[C@H]([C@H](C)C[C@H]2C[C@H]3C[C@@H]2C[C@@H]3O)CC(=O)[C@H](C)/C=C(\C)[C@@H](O)[C@@H](OC)C(=O)[C@H](C)C[C@H](C)/C=C/C=C/C=C/1C [Formula II, C37-[(1R,2S,4R,5S)-5-hyhroxybicyclo[2.2.1]heptane] rapamycin]
SK-MEL-28
  Cell Count Activity Area: 2.68
  GI50: 38.2 nM
  IC50: > 1000 nM
SK-MEL-28; 1.00E+00 microM
  Relative cell count (%) Mean: 60.6%
SK-MEL-28; 1.00E-01 microM
  Relative cell count (%) Mean: 69.8%
SK-MEL-28; 1.00E-02 microM
  Relative cell count (%) Mean: 84.3%
SK-MEL-28; 1.00E-03 microM
  Relative cell count (%) Mean: 91.6%
SK-MEL-28; 1.01E-04 microM
  Relative cell count (%) Mean: 110.7%
SK-MEL-28; 3.16E-01 microM
  Relative cell count (%) Mean: 66.4%
SK-MEL-28; 3.17E-02 microM
  Relative cell count (%) Mean: 71.0%
SK-MEL-28; 3.17E-03 microM
  Relative cell count (%) Mean: 85.4%
SK-MEL-28; 3.18E-04 microM
  Relative cell count (%) Mean: 94.6%
SK-MEL-28; 3.18E-05 microM
  Relative cell count (%) Mean: 102.8%
SK-MEL-28; Skin, Melanoma, summary Table 5, read-out: EC50
  EC50: 4.8 nM
SK-MEL-28; read-out: Cell Count EC50
  EC50: 4.71 nM
U-138MG; U-138 MG, CNS, Glioblastoma, summary Table 5, read-out: EC50
  EC50: 1.4 nM
U-138MG; [2]
  EC50: 1.44 nM
U-138MG; U-138MG
  GI50: 23 nM
  IC50: > 1000 nM
  Cell Count Activity Area: 2.59
U-138MG; U-138MG, 1.00E+00 microM
  Relative cell count (%) Mean: 60.4%
U-138MG; U-138MG, 1.00E-01 microM
  Relative cell count (%) Mean: 67.9%
U-138MG; U-138MG, 1.00E-02 microM
  Relative cell count (%) Mean: 76.4%
U-138MG; U-138MG, 1.00E-03 microM
  Relative cell count (%) Mean: 74.8%
U-138MG; U-138MG, 1.01E-04 microM
  Relative cell count (%) Mean: 87.7%
U-138MG; U-138MG, 3.16E-01 microM
  Relative cell count (%) Mean: 65.0%
U-138MG; U-138MG, 3.17E-02 microM
  Relative cell count (%) Mean: 69.1%
U-138MG; U-138MG, 3.17E-03 microM
  Relative cell count (%) Mean: 73.8%
U-138MG; U-138MG, 3.18E-04 microM
  Relative cell count (%) Mean: 78.5%
U-138MG; U-138MG, 3.18E-05 microM
  Relative cell count (%) Mean: 87.8%
[1]
  Body Wt. % Δ from Baseline, Mean: 14.68%
  Body Wt. % Δ from Baseline, Median: 14.64%
  Change in Body Weight Day 1-30, Mean: 3.13
  Change in Body Weight Day 1-30, Median: 3.08
  Day 30 Body Weight, Mean: 24.37 g
  Day 30 Body Weight, Median: 24.12 g
TORC1
  TORC1/TORC2 Selectivity: 50x
  selectivity of mTORC1 vs mTORC2 inhibition compared with the polyketide disclosed in U.S. Pat. No. 9,382,266 (in words): less selectively
TORC1; Western blot
  IC50: 0.099 nM
TORC2
  IC50: 5 nM
PC-3
  EC50: 0.637 nM
  GI50: 3.99 nM
  IC50: 18.4 nM
  Cell Count Activity Area: 3.80
PC-3; 1.00E+00 microM
  Relative cell count (%) Mean: 42.2%
PC-3; 1.00E-01 microM
  Relative cell count (%) Mean: 50.3%
PC-3; 1.00E-02 microM
  Relative cell count (%) Mean: 59.2%
PC-3; 1.00E-03 microM
  Relative cell count (%) Mean: 70.9%
PC-3; 1.01E-04 microM
  Relative cell count (%) Mean: 98.3%
PC-3; 3.16E-01 microM
  Relative cell count (%) Mean: 47.6%
PC-3; 3.17E-02 microM
  Relative cell count (%) Mean: 50.8%
PC-3; 3.17E-03 microM
  Relative cell count (%) Mean: 61.5%
PC-3; 3.18E-04 microM
  Relative cell count (%) Mean: 73.9%
PC-3; 3.18E-05 microM
  Relative cell count (%) Mean: 96.9%

## CN[C@@H]1C[C@H]2O[C@@](C)([C@@H]1OC)n1c3ccccc3c3c4c(c5c6ccccc6n2c5c31)C(=O)NC4 [Staurosporine, reference compound]
SK-MEL-28
  Cell Count Activity Area: 2.81
  GI50: 32.1 nM
  IC50: 64.3 nM
U-138MG; [2]
  EC50: 0.857 nM
U-138MG; U-138MG
  GI50: 1.05 nM
  Cell Count Activity Area: 3.72
PC-3
  EC50: 0.903 nM
  GI50: 1.07 nM
  Cell Count Activity Area: 4.67
